Source: patent publication US7235534B2, “Antisense strategy to modulate estrogen receptor response (ER α and/or ER β )” (Institut de Cardiologie de Montreal, priority 2001, dated 2007)

Experiments:
ERα [1] = assay: Western blot of ERα protein expression in PSMC; type: cell-based, porcine; conditions: oligomer 10^−6 mol/L, vs PBS-treated cells
Protocol: (§1) The efficiency and specificity of our antisense sequences to block the targeted protein expression were evaluated by Western blot analysis. Culture medium of confluent PAEC and PSMC (100-mm tissue culture plate) were rinsed with Dulbecco's modified eagle medium (DMEM; Life Technologies Inc., Carlsbad, Calif.) and trypsinized (trypsine-EDTA; Life Technologies). Cells were resuspended in DMEM containing 5% of fetal bovine serum and antibiotics (penicillin and streptomycin, Sigma, St-Louis, Mo.), and a cell count was obtained with a Coulter counter Z1 (Coulter Electronics, Luton, UK). Cells were seeded at 1×10^6 cells/100-mm tissue culture plate (Becton-Dickinson, Rutherford, N.J.), stimulated for 24 h in DMEM, 5% FBS, and antibiotics with or without antisense oligomers (10^−7, 5×10^−7, 10^−6 mol/L) and starved for 48 h in DMEM, 0.1% FBS, and antibiotics with or without antisense oligomers (10^−7, 5×10^−7, 10^−6 mol/L daily) for G0 synchronization. LipofectAnime (5 μg/ml, Life Technology Inc) was used as a transfection reagent only on PSMC. The cells were then grown to confluence for 16 h in DMEM, 5% FBS, and antibiotics with or without antisense oligomers (10^−7, 5×10^−7, 10^−6 mol/L) and starved for 7 h in DMEM, 0.1% FBS, and antibiotics with or without antisense oligomers (10^−7, 5×10^−7, 10^−6 mol/L) to induce an up-regulation of the ER expression. Culture medium was removed, and cells were rinsed twice with ice-cold DMEM. Total proteins were prepared by the addition of 500 μl of lysis buffer containing phenylmethylsulfonyl fluoride 1 mM (Sigma), leupeptin 10 μg/ml (Sigma), aprotinin 30 μg/mi (Sigma), and NaVO3 1 mM (Sigma). Plates were incubated at 4° C. for 30 min and scraped, and the protein concentration was determined with a Bio-Rad protein kit (Bio-Rad, Hercules, Calif.). Same protein quantity for each cell type were dissolved in Laemmli's buffer, boiled for 5 min in reducing conditions, separated by a 10% gradient SDS-PAGE (Protean II kit; Bio-Rad), and transblotted onto a 0.45-μm polyvinylidene difluoride membranes (Millipore Corp., Bedford, Mass.). […]

ERα [2] = assay: Western blot of ERα protein expression in PAEC; type: cell-based, porcine; conditions: oligomer 10^−6 mol/L, vs PBS-treated cells
Protocol: as §1

ERβ [3] = assay: Western blot of ERβ protein expression in PAEC; type: cell-based, porcine; conditions: oligomer 10^−6 mol/L, vs PBS-treated cells
Protocol: as §1

ERβ [4] = assay: Western blot of ERβ protein expression in PSMC; type: cell-based, porcine; conditions: oligomer 10^−6 mol/L, vs PBS-treated cells
Protocol: as §1

[5] = system: Porcine aortic endothelial cells (PAEC); assay: Chemotactic assay on PAEC (modified Boyden chamber); type: cell-based; conditions: 5 hrs
Protocol: (§2) Cell migration was evaluated using a modified Boyden 48-well microchamber kit (NeuroProbe, Cabin John, MD.). Near confluent EC and PSMC were rinsed with DMEM and trypsinized. Cells were resuspended in DMEM, 5% FBS, and antibiotics, and a cell count was obtained. […] ER antagonists were added 5 minutes before 17βE. Cells were harvested by trypsinization and resuspended in DMEM, 1% FBS, and antibiotics at a concentration of 5×10^5 cells/ml. […] The two sections of the system were separated by a porous polycarbonate filter (5-μm pores), pre-treated with a gelatine solution (1.5 mg/ml), and assembled. Five hours post incubation at 37° C., the nonmigrated cells were scraped with a plastic policeman, and the migrated cells were stained using a Quick-Diff solution. The filter was then mounted on a glass slide, and migrated cells were counted using a microscope adapted to a video camera to obtain a computer-digitized image.
(§3) Cell migration was evaluated using a modified Boyden 48-well microchamber kit (NeuroProbe, Cabin John, MD.). Near confluent PAEC and PSMC were rinsed with DMEM and trypsinized. Cells were resuspended in DMEM, 5% FBS, and antibiotics, and a cell count was obtained. PAEC and PSMC were seeded at 2.5×10^5 cells/well of 6-well tissue culture plates; stimulated for 24 hours in DMEM, 5% FBS, and antibiotics with or without antisense oligomers (10^−6 mol/L) and starved for 48 hours in DMEM, 0.1% FBS, and antibiotics with or without antisense oligomers (10^−6 mol/L daily) with or without 17βE (10^−8 mol/L). Cells were harvested by trypsinization and resuspended in DMEM, 1% FBS, and antibiotics at a concentration of 5×10^5 cells/mL. Fifty μL of this cell suspension with or without antisense oligomers (10^−6 mol/L) treated with or without 17βE (10^−8 mol/L) was added in the higher-chamber of the modified Boyden chamber apparatus, and the lower chamber was filled with DMEM, 1% FBS, antibiotics plus the desired concentration of agonist either 17βE (10^−8 mol/L) or platelet-derived growth factor-BB (PDGF-BB). The 2 sections of the system were separated by a porous polycarbonate filter (5-μm pores size), pretreated with a gelatine solution (1.5 mg/mL), and assembled. Five hours postincubation at 37° C., the non-migrated cells were scraped with a plastic policeman, and the migrated cells were stained using a Quick-Diff solution (Shandon Inc). The filter was then mounted on a glass slide, and migrated cells were counted using a microscope adapted to a video camera to obtain a computer-digitized image.

[6] = system: Porcine smooth muscle cells (PSMC); assay: Chemotactic assay on PSMC (modified Boyden chamber); type: cell-based; conditions: 5 hours
Protocol: as §2, §3

Row | Molecule | inhibition of basal ERα protein expression (ERα [1]) | inhibition of basal ERα protein expression (ERα [2]) | inhibition of basal ERβ protein expression (ERβ [3]) | inhibition of basal ERβ protein expression (ERβ [4]) | other results
1 | AS2-ERα: antisense oligonucleotide, phosphothioate backbone, targeting porcine ERα mRNA: 5′-GAC GCT TTG GTG TGT AGG-3′ (antisense GACGCTTTGGTGTGTAGG; DNA, all phosphorothioate, methylation of C not given here) | 89% | 95% |  |  | 
2 | AS2-ERβ: antisense oligonucleotide, phosphothioate backbone, targeting porcine ERβ mRNA: 5′-GCT AAA GGA GAG AGG TGT-3′ (antisense GCTAAAGGAGAGAGGTGT; DNA, all phosphorothioate, methylation of C not given here) |  |  | 97% | 92% | 
3 | SCR-ERβ: scrambled phosphothioate sequence, negative control: 5′-GAG TGG ACG TGA AGA AGT-3′ (GAGTGGACGTGAAGAAGT; DNA, all phosphorothioate, methylation of C not given here) |  |  | no suppressing effect | no suppressing effect | 
4 | bFGF: basic fibroblast growth factor, chemotactic agonist for PAEC |  |  |  |  | induction of PAEC migration as compared to DMEM 1% ([5]; bFGF 1 ng/ml): 46%; induction of PAEC migration as compared to DMEM 1% ([5]; bFGF 5 ng/ml): 124%; induction of PAEC migration as compared to DMEM 1% ([5]; bFGF 10 ng/ml): 114%
5 | AS1-ERβ: antisense oligonucleotide, phosphothioate backbone, targeting porcine ERβ mRNA: 5′-GTA GGA GAC AGG AGA GTT-3′ (antisense GTAGGAGACAGGAGAGTT; DNA, all phosphorothioate, methylation of C not given here) |  |  | 90% | 84% | 
6 | SCR-ERα: scrambled phosphothioate sequence, negative control: 5′-TGT AGC TCG GTT CTG TCG-3′ (TGTAGCTCGGTTCTGTCG; DNA, all phosphorothioate, methylation of C not given here) | no suppressing effect | no suppressing effect |  |  | 
7 | AS1-ERα: antisense oligonucleotide, phosphothioate backbone, targeting porcine ERα mRNA: 5′-CTC GTT GGC TTG GAT CTG-3′ (antisense CTCGTTGGCTTGGATCTG; DNA, all phosphorothioate, methylation of C not given here) | 88% | 94% |  |  | 
8 | PDGF-BB: platelet derived growth factor-BB, agonist in the lower Boyden chamber and MAPK stimulus (protein, UniProt P01127 82-190, looked up) Platelet-derived growth …: SLGSLTIAEPAMIAECKTRTEVFEISRRLIDRTNANFLVWPPCVEVQRCSGCCNNRNVQCRPTQVQLRPVQVRKIEIVRKKPIFKKATVTLEDHLACKCETVAAARPVT |  |  |  |  | induction of PSMC migration as compared to DMEM 1% ([6]; PDGF-BB 1 ng/ml): 96%; induction of PSMC migration as compared to DMEM 1% ([6]; PDGF-BB 5 ng/ml): 137%; induction of PSMC migration as compared to DMEM 1% ([6]; PDGF-BB 10 ng/mL, Example 2): 199%; induction of PSMC migration as compared to DMEM 1% ([6]; PDGF-BB 10 ng/ml, Example 1): 202%
